Laboratory results as given in US20190330226A1, “POSITIVE ALLOSTERIC MODULATORS OF THE MUSCARINIC ACETYLCHOLINE RECEPTOR M1” (Vanderbilt University, priority 2018, published 2019).

Target: T1, human mAChR M1 (Homo sapiens, UniProt P11229)
T1 construct: host or cells: CHO-K1 (ATCC), stably transfected using Lipofectamine 2000
T1 sequence (P11229 1-460): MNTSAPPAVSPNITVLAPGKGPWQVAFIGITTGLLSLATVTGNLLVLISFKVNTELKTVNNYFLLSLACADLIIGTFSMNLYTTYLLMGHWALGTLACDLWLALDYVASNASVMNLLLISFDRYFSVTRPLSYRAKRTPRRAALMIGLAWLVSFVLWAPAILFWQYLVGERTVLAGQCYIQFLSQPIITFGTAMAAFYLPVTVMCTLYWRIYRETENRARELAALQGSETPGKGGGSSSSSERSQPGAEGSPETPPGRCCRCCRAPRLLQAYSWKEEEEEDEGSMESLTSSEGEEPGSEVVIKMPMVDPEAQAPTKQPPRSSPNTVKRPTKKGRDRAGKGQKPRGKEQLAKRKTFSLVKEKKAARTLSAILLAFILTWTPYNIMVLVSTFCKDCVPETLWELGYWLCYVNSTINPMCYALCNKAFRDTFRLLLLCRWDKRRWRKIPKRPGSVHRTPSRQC
Assay: mAChR M1 cell-based functional assay (calcium mobilization, Fluo-4, FDSS)
Details: CHO-K1 cells stably expressing hM1, calcium flux; for Emax: PAM mode with EC20 acetylcholine; for EC50: concentration-dependent increase in the EC20 acetylcholine response
Excerpt: Chinese hamster ovary (CHO-K1) cells stably expressing rat (r)M1 were purchased from the American Type Culture Collection and cultured according to their indicated protocol. CHO cells stably expressing human (h)M2, hM3, and hM5 were described previously (Levey, et al., 1991); hM1 and hM4 cDNAs were purchased from Missouri S&T cDNA Resource; rM4 cDNA was provided by T. I. Bonner (National Institutes of Health, Bethesda, Md.). rM2 and rM3 were cloned from a rat brain cDNA library and sequence verified. hM1, rM2, rM3, hM4, and rM4 cDNAs were used to stably transfect CHO-K1 cells purchased from the American Type Culture Collection using Lipofectamine 2000. To make stable rM2, hM2, rM3, hM4, and rM4 cell lines for use in calcium mobilization assays, these cells also were stably transfected with a chimeric G-protein (Gqi5) (provided by B. R. Conklin, University of California, San Francisco) using Lipofectamine 2000. rM1, hM1, rM3, hM3, rM5, and hM5 cells were grown in Ham's F-12 medium containing 10% heat-inactivated fetal bovine serum (FBS), 20 mM HEPES, and 50 µg/mL G418 sulfate. rM2-Gqi5, hM2-Gqi5, and hM4-Gqi5 cells were grown in the same medium also containing 500 μg/mL Hygromycin B. Stable rM4-Gqi5 cells were grown in DMEM containing 10% heat-inactivated FBS, 20 mM HEPES, 400 μg/mL G418 sulfate, and 500 μg/mL Hygromycin B.
For high throughput measurement of agonist-evoked increases in intracellular calcium, CHO-K1 cells stably expressing muscarinic receptors were plated in growth medium lacking G418 and hygromycin at 15,000 cells/20 μL/well in Greiner 384-well black-walled, tissue culture (TC)-treated, clear-bottom plates (VWR). Cells were incubated overnight at 37° C. and 5% CO2. The next day, cells were washed using an ELX 405 (BioTek) with four washes ([…]) of assay buffer then aspirated to 20 μL. Next, 20 μL of 16 μM Fluo-4/acetoxymethyl ester (Invitrogen, Carlsbad, Calif.) prepared as a 2.3 mM stock in DMSO and mixed in a 1:1 ratio with 10% (w/v) Pluronic F-127 and diluted in assay buffer was added to the wells and the cell plates were incubated for 50 min at 37° C. and 5% CO2. Dye was removed by washing with the ELX 405 (four 80 μL washes of assay buffer) then aspirated to 20 μL. Compound master plates were formatted in an 11 point CRC format (1:3 dilutions) in 100% DMSO with a starting concentration of 10 mM using the BRAVO liquid handler (Agilent). Test compound CRCs were then transferred to daughter plates (240 nL) using the Echo acoustic plate reformatter (Labcyte, Sunnyvale, Calif.) and then diluted into assay buffer (40 μL) to a 2× stock using a Thermo Fisher Combi (Thermo Fisher Scientific, Waltham, Mass.).
Calcium flux was measured using the Functional Drug Screening System (FDSS) 6000 (Hamamatsu Corporation, Tokyo, Japan) as an increase in the fluorescent static ratio. Compounds were applied to cells (20 μL, 2×) using the automated system of the FDSS 6000 at 4 s into the 300 s protocol and the data were collected at 1 Hz. At 144 s into the 300s protocol, 10 μL of an EC20 concentration of the muscarinic receptor agonist acetylcholine was added (5×), followed by the addition of 12 μL an EC80 concentration of acetylcholine at the 230 s time point (5×). Agonist activity was analyzed as a concentration-dependent increase in calcium mobilization upon compound addition. Positive allosteric modulator activity was analyzed as a concentration-dependent increase in the EC20 acetylcholine response. Antagonist activity was analyzed as a concentration-dependent decrease in the EC80 acetylcholine response. Concentration-response curves were generated using a four-parameter logistical equation in XLfit curve fitting software (IDBS, Bridgewater, N.J.) for Excel (Microsoft, Redmond, Wash.) or Prism (GraphPad Software, Inc., San Diego, Calif.).
Activity (EC50 and Emax) was determined in the mAChR M1 cell-based functional assay as described above and the data are shown in Table 2. […]

With `O=C1c2scnc2CN1Cc1c(F)cc(-c2ccc3nccn3c2)cc1F` [Compound 15, 5-(2,6-difluoro-4-(imidazo[1,2-a]pyridin-6-yl)benzyl)-4,5-dihydro-6H-pyrrolo[3,4-d]thiazol-6-one] the Emax was 55%.

For `O=C1c2ccsc2CN1Cc1ccc(-c2ccc3nccn3c2)cc1F` [Compound 45, 5-(2-fluoro-4-(imidazo[1,2-a]pyridin-6-yl)benzyl)-5,6-dihydro-4H-thieno[2,3-c]pyrrol-4-one], the Emax was 50% and the EC50 was 4.46 µM.

In the case of `Cn1cc2cccc(-c3cc(F)c(CN4Cc5cnn(CC6CCCO6)c5C4=O)c(F)c3)c2n1` (centres unmarked) [Compound 38, 5-(2,6-difluoro-4-(2-methyl-2H-indazol-7-yl)benzyl)-1-((tetrahydrofuran-2-yl)methyl)-4,5-dihydropyrrolo[3,4-c]pyrazol-6(1H)-one], the Emax is reported as 66% and the EC50 is reported as 6.89 µM.

Work on `Cc1nn(C)cc1-c1cc(F)c(CN2Cc3cnn(CC4CCCO4)c3C2=O)c(F)c1` (centres unmarked) [Compound 37, 5-(4-(1,3-dimethyl-1H-pyrazol-4-yl)-2,6-difluorobenzyl)-1-((tetrahydrofuran-2-yl)methyl)-4,5-dihydropyrrolo[3,4-c]pyrazol-6(1H)-one] yielded an Emax of 77% and an EC50 of 3.22 µM.

`Cn1cc2c(-c3cc(F)c(CN4Cc5cn(CCN6CCCC6)nc5C4=O)c(F)c3)cccc2n1` [Compound 21, 5-(2,6-difluoro-4-(2-methyl-2H-indazol-4-yl)benzyl)-2-(2-(pyrrolidin-1-yl)ethyl)-4,5-dihydropyrrolo[3,4-c]pyrazol-6(2H)-one] was tested, and the Emax was 57% and the EC50 was 5.18 µM.

`Cn1cc2c(-c3cc(F)c(CN4Cc5cn[nH]c5C4=O)c(F)c3)cccc2n1` [Compound 6.2, 5-(2,6-difluoro-4-(2-methyl-2H-indazol-4-yl)benzyl)-4,5-dihydropyrrolo[3,4-c]pyrazol-6(1H)-one] gave an Emax of 87%.

Work on `COc1ccc(Cn2ncc3c2C(=O)N(Cc2c(F)cc(-c4cccc5nn(C)cc45)cc2F)C3)cc1` [Compound 6.1, 5-(2,6-difluoro-4-(2-methyl-2H-indazol-4-yl)benzyl)-1-(4-methoxybenzyl)-4,5-dihydropyrrolo[3,4-c]pyrazol-6(1H)-one] yielded an Emax of 45% and an EC50 of 4.37 µM.

With `CCn1ccc2c1C(=O)N(Cc1c(F)cc(-c3cccc4nn(C)cc34)cc1F)C2` [Compound 53, 5-(2,6-difluoro-4-(2-methyl-2H-indazol-4-yl)benzyl)-1-ethyl-4,5-dihydropyrrolo[3,4-b]pyrrol-6(1H)-one] the Emax was 63%.

Compound `Cc1[nH]cc2c1C(=O)N(Cc1c(F)cc(-c3cccc4nn(C)cc34)cc1F)C2` [Compound 61, 2-(2,6-difluoro-4-(2-methyl-2H-indazol-4-yl)benzyl)-6-methyl-3,5-dihydropyrrolo[3,4-c]pyrrol-1(2H)-one] has an Emax of 51%.

Work on `Cn1ccc(-c2ccc(CN3Cc4sccc4C3=O)c(F)c2)n1` [Compound 42, 5-(2-fluoro-4-(1-methyl-1H-pyrazol-3-yl)benzyl)-5,6-dihydro-4H-thieno[2,3-c]pyrrol-4-one] yielded an Emax of 46%.

Work on `Cn1cc2c(-c3cc(F)c(CN4Cc5cnn(CCN6CCCC6)c5C4=O)c(F)c3)cccc2n1` [Compound 20, 5-(2,6-difluoro-4-(2-methyl-2H-indazol-4-yl)benzyl)-1-(2-(pyrrolidin-1-yl)ethyl)-4,5-dihydropyrrolo[3,4-c]pyrazol-6(1H)-one] yielded an Emax of 91% and an EC50 of 0.73 µM.

`Cn1cc2c(-c3ccc(CN4Cc5sccc5C4=O)c(F)c3)cccc2n1` [Compound 40, 5-(2-fluoro-4-(2-methyl-2H-indazol-4-yl)benzyl)-5,6-dihydro-4H-thieno[2,3-c]pyrrol-4-one] was tested, and the Emax was 67% and the EC50 was 3.97 µM.

In the case of `Cc1n[nH]c2ccc(-c3cc(F)c(CN4Cc5sccc5C4=O)c(F)c3)cc12` [Compound 28, 5-(2,6-difluoro-4-(3-methyl-1H-indazol-5-yl)benzyl)-5,6-dihydro-4H-thieno[2,3-c]pyrrol-4-one], the Emax is reported as 57%.
